Test results as given in patent publication US20100184813A1, “CHEMICAL COMPOUNDS 553” (AstraZeneca AB, priority 2008, published 2010).

Molecular target: T1, human DGAT1 (Homo sapiens, UniProt O75907)
T1 construct: made in house; host or cells: Sf9 insect cells (baculovirus); membrane fraction
T1 sequence (O75907 1-488): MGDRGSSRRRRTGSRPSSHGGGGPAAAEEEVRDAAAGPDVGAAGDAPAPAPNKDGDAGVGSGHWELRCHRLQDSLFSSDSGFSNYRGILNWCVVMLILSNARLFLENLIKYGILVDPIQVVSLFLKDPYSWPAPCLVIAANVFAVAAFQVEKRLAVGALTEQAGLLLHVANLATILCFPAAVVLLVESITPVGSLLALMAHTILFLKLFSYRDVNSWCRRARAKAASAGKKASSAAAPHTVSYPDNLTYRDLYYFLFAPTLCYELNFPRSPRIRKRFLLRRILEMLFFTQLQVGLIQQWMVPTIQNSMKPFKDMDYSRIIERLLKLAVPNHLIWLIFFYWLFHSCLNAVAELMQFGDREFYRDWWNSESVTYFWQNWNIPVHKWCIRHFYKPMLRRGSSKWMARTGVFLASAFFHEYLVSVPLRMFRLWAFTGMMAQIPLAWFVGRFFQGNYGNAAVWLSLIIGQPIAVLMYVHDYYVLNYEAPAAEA
Assay: Human Enzyme Assay (DGAT1 inhibition, 14C oleoyl coenzyme A, insect cell membranes)
Assay type: biochemical
Conditions: human DGAT1 expressed in sf9 insect cell membranes; usually a mean of 2 measurements
Protocol: See, for example, International Application WO 2005/044250.
The in vitro assay to identify DGAT1 inhibitors uses human DGAT1 expressed in insect cell membranes as the enzyme source (Proc. Natl. Acad. Sci. 1998, 95, 13018-13023). Briefly, sf9 cells were infected with recombinant baculovirus containing human DGAT1 coding sequences and harvested after 48 h. Cells were lysed by sonication and membranes isolated by centrifuging at 28000 rpm for 1 h at 4° C. on a 41% sucrose gradient. The membrane fraction at the interphase was collected, washed, and stored in liquid nitrogen.
DGAT1 activity was assayed by a modification of the method described by Coleman (Methods in Enzymology 1992, 209, 98-102). Compound at 0.0000256 μM-33 μM (final conc.) (typically 10 μM) was incubated with 4 μg/ml (final conc) membrane protein, 5 mM MgCl2, and 100 μM 1,2 dioleoyl-sn-glycerol (dissolved in acetone with a final assay conc. of acetone of 10%) in a total assay volume of 200 μl in a 96 well plate. The reaction was started by adding ^14C oleoyl coenzyme A (30 μM final concentration) and incubated at room temperature for 30 minutes. The reaction was stopped by adding 200 μl 2-propanol:heptane 7:1. Radioactive triolein product was separated into the organic phase by adding 300 μl heptane and 100 μl 0.1 M carbonate buffer pH 9.5. DGAT1 activity was quantified by counting aliquots of the upper heptane layer by liquid scintillography.
Stated figures are usually a mean of a number of measurements (usually 2 measurements) according to standard practice.

SMILES | IC50 [nM]
O=C(Nc1ccc([C@H]2CC[C@H](C(=O)O)CC2)cc1F)c1nnc(Nc2ccc(F)c(F)c2)o1 [Example 5, (1r,4r)-4-(4-(5-(3,4-Difluorophenylamino)-1,3,4-oxadiazole-2-carboxamido)-3-fluorophenyl)cyclohexanecarboxylic acid] | 5.5
O=C(Nc1ccc([C@H]2CC[C@H](C(=O)O)CC2)cc1F)c1nnc(Nc2ccc(OC(F)F)cc2)o1 [Example 2] | 28
O=C(Nc1ccc([C@H]2CC[C@@H](C(=O)O)CC2)cc1F)c1nnc(Nc2ccc(F)c(F)c2)o1 [Example 7, (1s,4s)-4-(4-(5-(3,4-Difluorophenylamino)-1,3,4-oxadiazole-2-carboxamido)-3-fluorophenyl)cyclohexanecarboxylic acid] | 9.2
O=C(Nc1ccc([C@H]2CC[C@H](C(=O)O)CC2)cc1F)c1nnc(Nc2cc(F)c(F)cc2F)o1 [Example 6, (1r,4r)-4-(3-Fluoro-4-(5-(2,4,5-trifluorophenylamino)-1,3,4-oxadiazole-2-carboxamido)phenyl)cyclohexanecarboxylic acid] | 3.7
O=C(Nc1ccc([C@H]2CC[C@H](C(=O)O)CC2)cc1F)c1nnc(Nc2ccc(C(F)(F)F)cc2)o1 [Example 1, (1r,4r)-4-(3-Fluoro-4-(5-(4-(trifluoromethyl)phenylamino)-1,3,4-oxadiazole-2-carboxamido)phenyl)cyclohexanecarboxylic acid] | 16
O=C(Nc1ccc([C@H]2CC[C@@H](C(=O)O)CC2)cc1F)c1nnc(Nc2cc(F)c(F)cc2F)o1 [Example 8, (1s,4s)-4-(3-Fluoro-4-(5-(2,4,5-trifluorophenylamino)-1,3,4-oxadiazole-2-carboxamido)phenyl)cyclohexanecarboxylic acid] | 4.7
O=C(Nc1ccc([C@H]2CC[C@H](C(=O)O)CC2)cc1F)c1nnc(Nc2ccc(OC(F)(F)F)cc2)o1 [Example 3, (1r,4r)-4-(3-Fluoro-4-(5-(4-(trifluoromethoxyl)phenylamino)-1,3,4-oxadiazole-2-carboxamido)phenyl)cyclohexanecarboxylic acid] | 11
O=C(Nc1ccc([C@H]2CC[C@H](C(=O)O)CC2)cc1F)c1nnc(Nc2cccc(Cl)c2)o1 [Example 4, (1r,4r)-4-(4-(5-(3-Chlorophenylamino)-1,3,4-oxadiazole-2-carboxamido)-3-fluorophenyl)cyclohexanecarboxylic acid] | 12
